Patent US10555987B2, “GHRH agonists for the treatment of ischemic disorders” (UNIVERSITY OF MIAMI, priority 2012, dated 2020)
Non-standard residues stand in square brackets, D forms with d. Residues, ends and D or L forms follow the SMILES beside them. *: point of attachment. Phe(F5) = N[C@@H](Cc1c(F)c(F)c(F)c(F)c1F)C(=O)O; Desaminotyrosyl = O=C(CCc1ccc(O)cc1)*; NMeY = CN[C@@H](Cc1ccc(O)cc1)C(=O)O; Agmatine = N=C(N)NCCCCN*; NMeA = CN[C@@H](C)C(=O)O; Nle = CCCC[C@H](N)C(=O)O; Orn = NCCC[C@H](N)C(=O)O; Abu = CC[C@H](N)C(=O)O; GABA = NCCCC(=O)O

Columns and labels:
GHRH receptor = target: T1, GHRH receptor (Homo sapiens, UniProt Q02643); test: GHRH receptor binding, competition with 125I-labeled JV-1-42, human pituitary membrane homogenates (Table 7); set-up: Normal human pituitaries were purchased from the National Hormone and Peptide Program; tissue National Hormone and Peptide Program (A.F. Parlow, Harbor-UCLA Medical Center, Torrance, Calif.); host or cells: normal human pituitary, membrane fraction; settings: for Relative affinity (Binding potency) vs JI-38: JI-38 = 1, Table 7
T1 sequence (Q02643 23-423): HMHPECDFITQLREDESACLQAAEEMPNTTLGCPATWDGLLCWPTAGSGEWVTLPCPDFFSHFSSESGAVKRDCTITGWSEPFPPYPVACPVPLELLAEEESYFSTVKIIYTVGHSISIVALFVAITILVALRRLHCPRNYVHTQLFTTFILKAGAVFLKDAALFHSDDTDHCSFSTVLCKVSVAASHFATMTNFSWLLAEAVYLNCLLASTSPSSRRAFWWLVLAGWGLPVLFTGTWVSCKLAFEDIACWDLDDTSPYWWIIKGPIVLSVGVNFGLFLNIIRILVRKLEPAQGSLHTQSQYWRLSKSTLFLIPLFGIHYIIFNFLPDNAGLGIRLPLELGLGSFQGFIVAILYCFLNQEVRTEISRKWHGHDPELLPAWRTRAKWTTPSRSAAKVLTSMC
Excerpt: Normal human pituitaries were purchased from the National Hormone and Peptide Program (A.F. Parlow, Los Angeles, County Harbor-UCLA Medical Center, Torrance, Calif.).

GH release = test: In vivo endocrine activity, GH release after subcutaneous administration (Table 9); settings: rat; for GH releasing potency relative to JI-38 (=1): subcutaneous (s.c.) injection
Method: Subcutaneous Administration. Adult male rats were used and anesthetized with pentobarbital (6 mg/100 g, b.w.), by i.p. injection. […] Blood samples were taken from the jugular vein 5, 15 and/or 30 minutes after the injection. The blood samples were centrifuged, plasma was removed and the GH level was measured byELISA. The results are summarized in terms of potency in Table 9.

| Molecule | Relative affinity (Binding potency) vs JI-38 (GHRH receptor) | GH releasing potency relative to JI-38 (=1) (GH release; 15 min after) | GH releasing potency relative to JI-38 (=1) (GH release; 30 min after) | Stimulation of growth hormone levels after subcutaneous administration (in words) (GH release; s.c.) | GH releasing potency relative to JI-38 (=1) (GH release; 5 min after) | IC50 (GHRH receptor; 125I-JV-1-42, human pituitary membranes, Table 7) [nM] |
| --- | --- | --- | --- | --- | --- | --- |
| CCCC[C@H](NC(=O)[C@@H](NC(=O)[C@H](CC(=O)O)NC(=O)[C@H](CCC(N)=O)NC(=O)[C@H](CC(C)C)NC(=O)[C@H](CC(C)C)NC(=O)[C@H](CCCN)NC(=O)[C@H](CCCNC(=N)N)NC(=O)[C@H](C)NC(=O)[C@H](CO)NC(=O)[C@H](CC(C)C)NC(=O)[C@H](CCC(N)=O)NC(=O)[C@H](CC)NC(=O)[C@H](CC(C)C)NC(=O)[C@@H](NC(=O)[C@H](CCCN)NC(=O)[C@H](CCCNC(=N)N)NC(=O)[C@H](Cc1ccc(O)cc1)NC(=O)[C@H](CO)NC(=O)[C@H](CC(N)=O)NC(=O)[C@@H](NC(=O)[C@H](Cc1c(F)c(F)c(F)c(F)c1F)NC(=O)[C@@H](NC(=O)[C@H](C)NC(=O)[C@H](CC(=O)O)NC(=O)[C@@H](C)NC(=O)[C@H](Cc1ccc(O)cc1)NC)[C@@H](C)CC)[C@@H](C)O)C(C)C)[C@@H](C)CC)C(=O)N[C@@H](CO)C(=O)N[C@@H](CCCNC(=N)N)C(=O)NCCCC(=O)NC [Peptide P-27414, [N—Me-Tyr^1, D-Ala^2, Fpa5^6, Orn^12, Abu^15, Orn^21, Nle^27, Gab^30]hGHRH(1-30)NH—CH3] (H-[NMeY][dA]DAI[Phe(F5)]TNSYR[Orn]VL[Abu]QLSAR[Orn]LLQDI[Nle]SR[GABA]-NHMe) | 2.79 | 1.30 | 1.23 | – | – | – |
| CCCC[C@H](NC(=O)[C@@H](NC(=O)[C@H](CC(=O)O)NC(=O)[C@H](CCC(N)=O)NC(=O)[C@H](CC(C)C)NC(=O)[C@H](CC(C)C)NC(=O)[C@H](CCCN)NC(=O)[C@H](CCCNC(=N)N)NC(=O)[C@H](C)NC(=O)[C@H](CO)NC(=O)[C@H](CC(C)C)NC(=O)[C@H](CCC(N)=O)NC(=O)[C@H](CC)NC(=O)[C@H](CC(C)C)NC(=O)[C@@H](NC(=O)[C@H](CCCN)NC(=O)[C@H](CCCNC(=N)N)NC(=O)[C@H](Cc1ccc(O)cc1)NC(=O)[C@H](CO)NC(=O)[C@H](CC(N)=O)NC(=O)[C@@H](NC(=O)[C@H](Cc1c(F)c(F)c(F)c(F)c1F)NC(=O)[C@@H](NC(=O)[C@H](C)NC(=O)[C@H](CC(=O)O)NC(=O)[C@@H](C)NC(=O)[C@H](Cc1ccc(O)cc1)NC)[C@@H](C)CC)[C@@H](C)O)C(C)C)[C@@H](C)CC)C(=O)N[C@@H](CC(=O)O)C(=O)NCCCCNC(=N)N [Peptide P-20359, [N—Me-Tyr^1, D-Ala^2, Fpa5^6, Orn^12, Abu^15, Orn^21, Nle^27, Asp^28, Agm^29]hGHRH (1-29)NH2] (H-[NMeY][dA]DAI[Phe(F5)]TNSYR[Orn]VL[Abu]QLSAR[Orn]LLQDI[Nle]D-Agmatine) | 1.43 | – | – | – | – | – |
| CCCC[C@H](NC(=O)[C@@H](NC(=O)[C@H](CC(=O)O)NC(=O)[C@H](CCC(N)=O)NC(=O)[C@H](CC(C)C)NC(=O)[C@H](CC(C)C)NC(=O)[C@H](CCCN)NC(=O)[C@H](CCCNC(=N)N)NC(=O)[C@H](C)NC(=O)[C@H](CO)NC(=O)[C@H](CC(C)C)NC(=O)[C@H](CCC(N)=O)NC(=O)[C@H](CC)NC(=O)[C@H](CC(C)C)NC(=O)[C@@H](NC(=O)[C@H](CCCN)NC(=O)[C@H](CCCNC(=N)N)NC(=O)[C@H](Cc1ccc(O)cc1)NC(=O)[C@H](CO)NC(=O)[C@H](CC(N)=O)NC(=O)[C@@H](NC(=O)[C@H](Cc1ccccc1)NC(=O)[C@@H](NC(=O)[C@H](C)NC(=O)[C@H](CC(=O)O)NC(=O)[C@@H](C)NC(=O)CCc1ccc(O)cc1)[C@@H](C)CC)[C@@H](C)O)C(C)C)[C@@H](C)CC)C(=O)N[C@@H](CC(=O)O)C(=O)N[C@@H](CCCNC(=N)N)C(=O)NC [Peptide P-27400, [Dat^1, D-Ala^2, Orn^12, Abu^15, Orn^21, Nle^27, Asp^28]hGHRH(1-29)NH—CH3] (Desaminotyrosyl-[dA]DAIFTNSYR[Orn]VL[Abu]QLSAR[Orn]LLQDI[Nle]DR-NHMe) | 1.30 | 0.47 | 0.38 | – | – | – |
| CCCC[C@H](NC(=O)[C@@H](NC(=O)[C@H](CC(=O)O)NC(=O)[C@H](CCC(N)=O)NC(=O)[C@H](CC(C)C)NC(=O)[C@H](CC(C)C)NC(=O)[C@H](CCCN)NC(=O)[C@H](CCCNC(=N)N)NC(=O)[C@H](C)NC(=O)[C@H](CO)NC(=O)[C@H](CC(C)C)NC(=O)[C@H](CCC(N)=O)NC(=O)[C@H](CC)NC(=O)[C@H](CC(C)C)NC(=O)[C@@H](NC(=O)[C@H](CCCN)NC(=O)[C@H](CCCNC(=N)N)NC(=O)[C@H](Cc1ccc(O)cc1)NC(=O)[C@H](CO)NC(=O)[C@H](CC(N)=O)NC(=O)[C@@H](NC(=O)[C@H](Cc1ccccc1)NC(=O)[C@@H](NC(=O)[C@H](C)NC(=O)[C@H](CC(=O)O)NC(=O)[C@@H](C)NC(=O)[C@H](Cc1ccc(O)cc1)NC)[C@@H](C)CC)[C@@H](C)O)C(C)C)[C@@H](C)CC)C(=O)N[C@@H](CO)C(=O)N[C@@H](CCCNC(=N)N)C(=O)NCCCC(N)=O [Peptide P-25501, [N—Me-Tyr^1, D-Ala^2, Orn^12, Abu^15, Orn^21, Nle^27, Gab^30]hGHRH(1-30)NH2] (H-[NMeY][dA]DAIFTNSYR[Orn]VL[Abu]QLSAR[Orn]LLQDI[Nle]SR[GABA]-NH2) | 4.07 | 1.36 | 1.63 | stimulated greater growth hormone levels than hGHRH or JI-38 | 1.40 | – |
| CCCC[C@H](NC(=O)[C@@H](NC(=O)[C@H](CC(=O)O)NC(=O)[C@H](CCC(N)=O)NC(=O)[C@H](CC(C)C)NC(=O)[C@H](CC(C)C)NC(=O)[C@H](CCCN)NC(=O)[C@H](CCCNC(=N)N)NC(=O)[C@H](C)NC(=O)[C@H](CO)NC(=O)[C@H](CC(C)C)NC(=O)[C@H](CCC(N)=O)NC(=O)[C@H](CC)NC(=O)[C@H](CC(C)C)NC(=O)[C@@H](NC(=O)[C@H](CCCN)NC(=O)[C@H](CCCNC(=N)N)NC(=O)[C@H](Cc1ccc(O)cc1)NC(=O)[C@H](CO)NC(=O)[C@H](C)N(C)C(=O)[C@@H](NC(=O)[C@H](Cc1ccccc1)NC(=O)[C@@H](NC(=O)[C@H](C)NC(=O)[C@H](CC(=O)O)NC(=O)[C@@H](C)NC(=O)CCc1ccc(O)cc1)[C@@H](C)CC)[C@@H](C)O)C(C)C)[C@@H](C)CC)C(=O)N[C@@H](CC(=O)O)C(=O)NCCCCNC(=N)N [Peptide P-20357, [Dat^1, D-Ala^2, N—Me-Ala^8, Orn^12, Abu^15, Orn^21, Nle^27, Asp^28, Agm^29]hGHRH (1-29)NH2] (Desaminotyrosyl-[dA]DAIFT[NMeA]SYR[Orn]VL[Abu]QLSAR[Orn]LLQDI[Nle]D-Agmatine) | 5.06 | 1.07 | 1.41 | – | 0.63 | 0.86 |
| [N—Me-Tyr^1, D-Ala^2, Ala^8, Orn^12, Abu^15, Orn^21, Nle^27, Asp^28]hGHRH (1-29)NH—CH3 [Peptide P-27412] | – | 1.10 | 1.29 | – | – | – |
| [N—Me-Tyr^1, Gln^8, Orn^12, Abu^15, Orn^21, Nle^27, Agm^29]hGHRH(1-29)NH2 [Peptide P-20373] | – | 0.23 | 0.88 | – | – | – |
| [N—Me-D-Tyr^1, D-Ala^2, Gln^8, Orn^12, Abu^15, Orn^21, Nle^27, Asp^28]hGHRH(1-29)NH—CH3 [Peptide P-27425] | – | 0.49 | 0.31 | – | – | – |
| [N—Me-Tyr^1, D-Ala^2, Thr^8, Orn^12, Abu^15, Orn^21, Nle^27, Asp^28, Agm^29] hGHRH (1-29)NH2 [Peptide P-20360] | – | 0.24 | 0.39 | – | – | – |
| [N—Me-Tyr^1, D-Ala^2, Gln^8, Orn^12, Abu^15, Orn^21, Nle^27, Asp^28, Gln-Gab^30] hGHRH](1-30)NH2 [Peptide P-29701] | – | 1.30 | 1.55 | – | 0.92 | – |
